# Data reported in the NIST ThermoML archive (doi:10.1016/j.tca.2006.04.001).
# ± gives the expanded uncertainty stated by the source.
# Conditions: Liquid, Pycnometric method
smiles,measurement,setting,value
CCCCCCCCCCCCCCCCCC [octadecane],specific volume,299.25 K,0.00129 ± 1.9e-05 m3/kg
same,specific volume,301.35 K,0.001292 ± 1.9e-05 m3/kg
same,specific volume,303.35 K,0.001295 ± 1.9e-05 m3/kg
same,specific volume,305.45 K,0.001295 ± 1.9e-05 m3/kg
same,specific volume,307.55 K,0.001298 ± 1.9e-05 m3/kg
same,specific volume,309.55 K,0.001301 ± 1.9e-05 m3/kg
same,specific volume,311.65 K,0.001301 ± 1.9e-05 m3/kg
same,specific volume,313.65 K,0.001304 ± 2e-05 m3/kg
same,specific volume,315.75 K,0.001308 ± 2e-05 m3/kg
same,specific volume,317.75 K,0.001311 ± 2e-05 m3/kg
same,specific volume,318.65 K,0.001318 ± 2e-05 m3/kg
same,specific volume,319.85 K,0.001317 ± 2e-05 m3/kg
same,specific volume,320.65 K,0.001319 ± 2e-05 m3/kg
same,specific volume,323.55 K,0.001323 ± 2e-05 m3/kg
same,specific volume,325.45 K,0.001324 ± 2e-05 m3/kg
same,specific volume,328.35 K,0.00133 ± 2e-05 m3/kg
same,specific volume,330.35 K,0.001331 ± 2e-05 m3/kg
same,specific volume,333.25 K,0.001335 ± 2e-05 m3/kg
same,specific volume,335.15 K,0.001337 ± 2e-05 m3/kg
same,specific volume,338.05 K,0.001341 ± 2e-05 m3/kg
same,specific volume,341.05 K,0.001345 ± 2e-05 m3/kg
same,specific volume,342.95 K,0.001346 ± 2e-05 m3/kg
same,specific volume,345.85 K,0.00135 ± 2e-05 m3/kg
same,specific volume,347.85 K,0.001354 ± 2e-05 m3/kg
same,specific volume,350.75 K,0.001357 ± 2e-05 m3/kg
same,specific volume,352.65 K,0.00136 ± 2e-05 m3/kg
same,specific volume,355.55 K,0.001363 ± 2.1e-05 m3/kg
same,specific volume,357.55 K,0.001364 ± 2.1e-05 m3/kg
same,specific volume,360.45 K,0.001368 ± 2.1e-05 m3/kg
same,specific volume,362.35 K,0.001372 ± 2.1e-05 m3/kg
same,specific volume,365.25 K,0.001375 ± 2.1e-05 m3/kg
same,specific volume,367.25 K,0.001377 ± 2.1e-05 m3/kg
same,specific volume,370.15 K,0.001382 ± 2.1e-05 m3/kg
same,specific volume,372.05 K,0.001385 ± 2.1e-05 m3/kg
same,specific volume,374.95 K,0.001388 ± 2.1e-05 m3/kg
same,specific volume,376.95 K,0.001391 ± 2.1e-05 m3/kg
same,specific volume,379.85 K,0.001395 ± 2.1e-05 m3/kg
same,specific volume,381.75 K,0.001398 ± 2.1e-05 m3/kg
same,specific volume,384.75 K,0.001402 ± 2.1e-05 m3/kg
same,specific volume,386.65 K,0.001404 ± 2.1e-05 m3/kg
same,specific volume,389.55 K,0.001409 ± 2.1e-05 m3/kg
same,specific volume,391.55 K,0.001411 ± 2.1e-05 m3/kg
same,specific volume,394.45 K,0.001416 ± 2.1e-05 m3/kg
same,specific volume,396.35 K,0.001419 ± 2.1e-05 m3/kg
same,specific volume,399.25 K,0.001423 ± 2.1e-05 m3/kg
same,specific volume,401.25 K,0.001425 ± 2.1e-05 m3/kg
same,specific volume,404.15 K,0.001429 ± 2.2e-05 m3/kg
same,specific volume,406.05 K,0.001433 ± 2.2e-05 m3/kg
same,specific volume,408.95 K,0.001437 ± 2.2e-05 m3/kg
same,specific volume,410.95 K,0.00144 ± 2.2e-05 m3/kg
same,specific volume,413.85 K,0.001444 ± 2.2e-05 m3/kg
same,specific volume,415.75 K,0.001448 ± 2.2e-05 m3/kg
same,specific volume,418.65 K,0.001451 ± 2.2e-05 m3/kg
same,specific volume,420.65 K,0.001455 ± 2.2e-05 m3/kg
same,specific volume,423.55 K,0.001459 ± 2.2e-05 m3/kg
same,specific volume,425.45 K,0.001456 ± 2.2e-05 m3/kg
same,specific volume,428.45 K,0.001464 ± 2.2e-05 m3/kg
same,specific volume,430.35 K,0.001464 ± 2.2e-05 m3/kg
same,specific volume,433.25 K,0.001474 ± 2.2e-05 m3/kg
same,specific volume,435.25 K,0.001471 ± 2.2e-05 m3/kg
same,specific volume,438.15 K,0.001482 ± 2.2e-05 m3/kg
same,specific volume,440.05 K,0.001478 ± 2.2e-05 m3/kg
same,specific volume,442.95 K,0.001488 ± 2.2e-05 m3/kg
same,specific volume,444.95 K,0.001485 ± 2.2e-05 m3/kg
same,specific volume,447.85 K,0.001496 ± 2.3e-05 m3/kg
same,specific volume,449.75 K,0.001498 ± 2.3e-05 m3/kg
same,specific volume,452.65 K,0.001502 ± 2.3e-05 m3/kg
same,specific volume,454.65 K,0.001506 ± 2.3e-05 m3/kg
same,specific volume,457.55 K,0.001512 ± 2.3e-05 m3/kg
same,specific volume,459.45 K,0.001513 ± 2.3e-05 m3/kg
same,specific volume,462.45 K,0.00152 ± 2.3e-05 m3/kg
same,specific volume,464.35 K,0.001522 ± 2.3e-05 m3/kg
same,specific volume,467.25 K,0.00153 ± 2.3e-05 m3/kg
same,specific volume,469.15 K,0.001528 ± 2.3e-05 m3/kg
same,specific volume,472.15 K,0.001538 ± 2.3e-05 m3/kg
same,specific volume,474.05 K,0.001535 ± 2.3e-05 m3/kg
same,specific volume,476.95 K,0.001546 ± 2.3e-05 m3/kg
same,specific volume,478.95 K,0.001545 ± 2.3e-05 m3/kg
same,specific volume,481.85 K,0.001557 ± 2.3e-05 m3/kg
same,specific volume,483.75 K,0.001554 ± 2.3e-05 m3/kg
same,specific volume,486.65 K,0.001564 ± 2.3e-05 m3/kg
same,specific volume,488.65 K,0.001562 ± 2.3e-05 m3/kg
same,specific volume,491.55 K,0.001573 ± 2.4e-05 m3/kg
same,specific volume,493.45 K,0.001571 ± 2.4e-05 m3/kg
same,specific volume,496.35 K,0.001577 ± 2.4e-05 m3/kg
same,specific volume,498.35 K,0.001582 ± 2.4e-05 m3/kg
same,specific volume,500.25 K,0.001587 ± 2.4e-05 m3/kg
same,specific volume,503.15 K,0.001592 ± 2.4e-05 m3/kg
same,specific volume,505.15 K,0.001595 ± 2.4e-05 m3/kg
same,specific volume,508.05 K,0.001602 ± 2.4e-05 m3/kg
same,specific volume,510.95 K,0.001609 ± 2.4e-05 m3/kg
same,specific volume,512.95 K,0.00161 ± 2.4e-05 m3/kg
same,specific volume,515.85 K,0.001619 ± 2.4e-05 m3/kg
same,specific volume,518.75 K,0.001623 ± 2.4e-05 m3/kg
same,specific volume,520.65 K,0.001628 ± 2.4e-05 m3/kg
same,specific volume,523.55 K,0.001634 ± 2.5e-05 m3/kg
same,specific volume,525.55 K,0.001639 ± 2.5e-05 m3/kg
same,specific volume,527.45 K,0.001644 ± 2.5e-05 m3/kg
same,specific volume,530.35 K,0.001649 ± 2.5e-05 m3/kg
same,specific volume,533.25 K,0.001657 ± 2.5e-05 m3/kg
same,specific volume,535.25 K,0.001659 ± 2.5e-05 m3/kg
same,specific volume,538.15 K,0.001666 ± 2.5e-05 m3/kg
same,specific volume,541.05 K,0.001675 ± 2.5e-05 m3/kg
same,specific volume,543.05 K,0.001677 ± 2.5e-05 m3/kg
same,specific volume,545.95 K,0.001685 ± 2.5e-05 m3/kg
same,specific volume,548.85 K,0.001691 ± 2.5e-05 m3/kg
same,specific volume,550.75 K,0.001697 ± 2.6e-05 m3/kg
same,specific volume,553.65 K,0.001704 ± 2.6e-05 m3/kg
same,specific volume,555.65 K,0.001706 ± 2.6e-05 m3/kg
same,specific volume,558.55 K,0.001714 ± 2.6e-05 m3/kg
same,specific volume,560.45 K,0.00172 ± 2.6e-05 m3/kg
same,specific volume,563.45 K,0.00173 ± 2.6e-05 m3/kg
same,specific volume,566.35 K,0.001737 ± 2.6e-05 m3/kg
same,specific volume,568.25 K,0.001741 ± 2.6e-05 m3/kg
